Marks after values point to notes of the source that are not given here.
Legend:
[1] = Phase 1 multiple-dose study in healthy volunteers: safety and tolerability; format: in vivo, human
Text: Methods. The trial was a Phase 1, randomized, escalating multiple dose, single center study conducted in 2 stages.

[2] = system: human VEGF121 and VEGF165; experiment: HT1080 xenograft time course: pathologic plasma human VEGF; format: in vivo
Experimental: Experimental Design. HT1080 cells (5×10^6 cells/mouse) were implanted subcutaneously in male athymic nude mice.
Tumor size was measured by calipers immediately pre-treatment and at the time of sacrifice on Day 1, 2, or 3 (5 mice per group per day). At sacrifice, the plasma was collected for assay of pathologic human VEGF concentration using an ELISA that recognizes human VEGF121 and VEGF165 (as described in Section 9.1.1.1).

HT1080 cells = experiment: Reversibility of cell cycle delay after washout in HT1080 cells; format: cell-based, human; conditions: HT1080, 100 nM for 14 hours, then washout
tumor volume = experiment: Patients: tumor volume by MRI; format: in vivo, human
Text: Antitumor activity: Previously used radiographic response and progression criteria (see, e.g., Widemann et al., J. Clin. Oncol., January 2006, 24(3):507-16; and di Tomaso, “Preliminary success with anti-angiogenic therapy of NF2-related tumors” (Meeting abstract) 2008 NF Conference, Children's Tumor Foundation, Bonita Springs, Fla., Jun. 6-10, 2008) can be used to evaluate the ability of a Compound to specifically induce tumor shrinkage.
Timing of Tumor Volume Assessment: Subjects may undergo tumor volume measurement at screening, and at various times throughout the treatment protocol.
Method of Assessment: The determination of antitumor efficacy may be based on objective tumor assessments made according to volumetric measurement (see Widemann et al., J Clin Oncol. 2006 Jan. 20; 24(3):507-16; di Tomaso et al., Preliminary success with anti-angiogenic therapy of NF2-related tumors. (Meeting abstract). 2008 NF Conference, Children's Tumor Foundation, Bonita Springs, Fla., Jun. 6-10, 2008; Harris et al., Neurosurgery. 2008 June 62(6): 1314-9) and treatment decisions by the physician can be based on these assessments.
The MRI examinations may be performed using a standard head coil with 1.5-T scanners. […] For VS quantitative assessment, the MRI scans may be transmitted to a Vitrea2 workstation (Vital Images, Minnetonka, Minn.) for image processing and volume calculation.

MDA-MB-468 xenografts = experiment: MDA-MB-468 estrogen-insensitive breast cancer xenograft: tumor growth; format: in vivo
Experimental: Tumor size was measured by calipers at periodic intervals. When the individual tumor size in a mouse exceeded 1500 mm^3, that mouse was sacrificed and both tumor and plasma were assayed for pathologic VEGF concentration as described in Section 9.1.1.1.

Human VEGF-A = experiment: HT1080 xenograft selectivity studies: intratumoral VEGF-A ELISA; format: in vivo; conditions: Study 5, 15-days, treatment initiated at ~600 mm^3
Text: Experimental Design. […] All of these factors can be produced at tumor sites, and all may support tumor growth and metastases. See Yoon et al., Circ Res. 2003, 93(2):87 90; Ferrara et al., Nat. Rev. Drug Discov. […] Biophys. Acta 2004,1654(1):79 94; Saharinen et al., Trends Immunol. 2004, 25(7):387 95. There is also evidence that VEGF-A may stimulate production of P1GF by a post transcriptional mechanism. See Yao et al., FEBS Lett. 2005, 579(5):1227 34. VEGF-B was not assessed. […] See Vagner at al., Mol. Cell. Biol. 1995, 15(1):35 44; Hellen et al., Genes Dev. 2001, 15(13):1593 612. The survivin protein was similarly evaluated because the survivin mRNA has an IRES. PDGF was assessed because this protein has angiogenic activity and its mRNA contains an IRES. See Sella et al., Mol. Cell. Biol. 1999, 19(8):5429 40; Hellen et al., supra. Endostatin was included because antiangiogenic treatment in vivo has shown that compensatory […] in endogenous angiogenic inhibitors such as endostatin, thrombospondin, and angiostatin, results in a more pro angiogenic environment. See Sim, Angiogenesis, 1998, 2(1):37-48.
In all of these experiments, HT1080 cells (5×10^6 cells/mouse) were implanted subcutaneously in male athymic nude mice. When tumors had become established, mice were divided into groups (10 mice/group). […] Tumor size was measured by calipers at the beginning and end of treatment. […]

SY5Y xenografts = experiment: SY5Y neuroblastoma subcutaneous xenograft: tumor growth; format: in vivo
Experimental: Experimental Design. SY5Y cells are derived from a human neuroblastoma, a childhood tumor arising in neural crest cells. SY5Y cells (1×10^7 cells/mouse) were implanted subcutaneously in male athymic nude mice.
Tumor size was measured by calipers at periodic intervals. When the average tumor size in a group exceeded 2000 mm^3, the mice in the group were sacrificed and excised tumors were assayed for intratumoral VEGF concentration as described in Section 9.1.1.1.

[3] = Respiratory safety pharmacology in awake telemeterized dogs; format: in vivo, beagle dogs; conditions: single oral doses of 30, 60, and 120 mg/kg, male dogs
[4] = Cardiovascular safety pharmacology in awake telemeterized dogs; format: in vivo, beagle dogs; conditions: single oral doses of 30, 60, and 120 mg/kg, male dogs
CYPC19 = biological target: T1, CYPC19 (Homo sapiens, UniProt P33261); experiment: CYP inhibition: CYPC19; format: in vitro ADME; conditions: human hepatic microsomes or recombinant isoenzymes
T1 construct: host or cells: human hepatic microsomes or recombinant isoenzyme (not distinguished)
T1 sequence (P33261 whole entry): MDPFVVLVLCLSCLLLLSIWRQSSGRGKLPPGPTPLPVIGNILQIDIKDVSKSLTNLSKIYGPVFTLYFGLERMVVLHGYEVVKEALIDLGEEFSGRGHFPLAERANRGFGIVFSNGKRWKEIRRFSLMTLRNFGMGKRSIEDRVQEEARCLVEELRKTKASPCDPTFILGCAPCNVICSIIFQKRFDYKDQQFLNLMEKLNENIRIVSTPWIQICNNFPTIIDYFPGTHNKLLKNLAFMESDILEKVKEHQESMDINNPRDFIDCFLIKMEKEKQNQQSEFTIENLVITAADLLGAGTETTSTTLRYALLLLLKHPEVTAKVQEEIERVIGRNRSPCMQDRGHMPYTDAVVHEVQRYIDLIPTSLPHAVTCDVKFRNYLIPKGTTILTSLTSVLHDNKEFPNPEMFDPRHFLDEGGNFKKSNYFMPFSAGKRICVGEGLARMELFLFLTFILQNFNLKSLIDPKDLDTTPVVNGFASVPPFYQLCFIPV
Text: It is possible that in certain clinical trial subjects, such agents may need to be adjusted for dosing or replaced by alternative agents that are not metabolized by CYP2D6, particularly when such agents may have a low therapeutic index.

LNCaP xenografts = experiment: LNCaP prostate cancer xenograft: tumor growth (Table 20); format: in vivo, athymic nude mice
Experimental: Experimental Design. The LNCaP cell line is derived from a lymph node metastasis.
Tumor size was measured by calipers at periodic intervals during the study. When the mean tumor size in a mouse exceeded 1500 mm^3, mice in that group were sacrificed and both tumor and plasma were assayed for pathologic VEGF concentration as described in Section 9.1.1.1.

[5] = 50 mg/kg QD, 5 days per week (Table 18)
[6] = LNCaP xenografts, male athymic nude mice, 10 mg/kg M-W-F oral gavage

Compound: COc1ccc(C2c3[nH]c4ccc(Cl)cc4c3CCN2C(=O)Oc2ccc(Cl)cc2)cc1 (racemic) [Compound #10]
- Grade of treatment emergent adverse events and laboratory abnormalities ([1]; healthy volunteers, 7 days): generally Grade 1
- QTc prolongation ([1]; healthy volunteers, 7 days): no meaningful QTc prolongation
- Maximum tolerated dose ([1]; through the highest dose level tested ([…] TID)): No MTD was established
- Course of pathologic plasma human VEGF concentrations ([2]; Days 2 and 3): continued to decline
- Pathologic plasma human VEGF levels vs control animals ([2]; by Day 1): numerically lower than in control animals
- Time after washout by which cells had resumed normal cycling (HT1080 cells): ≤ 26 h
- Tumor volume, one patient (FIG. 40) (tumor volume): reducing and stabilizing tumor volume
- Mean % Inhibition of Tumor Size vs Vehicle at Day 12 (MDA-MB-468 xenografts; 10 mg/kg oral QD): 65* %
- Median Time to Tumor Size ≧1000 mm^3 (MDA-MB-468 xenografts; 10 mg/kg oral QD): 25 days
- Toxicity on observing the animals (MDA-MB-468 xenografts; MDA-MB-468 xenograft mice, 10 mg/kg QD): no evidence of toxicity
- Decrease in intratumoral VEGF levels (Human VEGF-A): 78%
- Mean % Inhibition of Tumor Size vs Vehicle at Day 17 (SY5Y xenografts; [5]): 73* %
- Median Time to Tumor Size ≧1000 mm^3 (SY5Y xenografts; [5]): 35 days
- Toxicity on observing the animals (SY5Y xenografts; SY5Y xenograft mice): no evidence of toxicity
- Changes in respiratory rate, core body temperature, arterial blood gases, arterial pH, or arterial bicarbonate [3]: no dose dependent or biologically significant changes
- Changes in cardiovascular or electrocardiographic (including QT interval) parameters [4]: no meaningful changes
- Inhibition of CYPC19 (CYPC19): No meaningful inhibition
- Time to tumor progression (time to reach ≧1000 mm^3) (LNCaP xenografts; 10 mg/kg M-W-F): prolonged
- Toxicity on observing the animals (LNCaP xenografts; LNCaP xenograft mice): no evidence of toxicity
- Mean % Inhibition of Tumor Size vs Vehicle at Day 35 (LNCaP xenografts; [6]): 36%
- Median Time to Tumor Size ≧1000 mm^3 (LNCaP xenografts; [6]): 38 days

— US20120157401A1, “METHODS FOR TREATING NEUROFIBROMATOSIS” (PTC Therapeutics, Inc., priority 2009, published 2012)
